The values below come from patent US5760027A, “Use of 7-alkylidene cephalosporins to inhibit elastase activity” (Research Corporation Technologies, Inc., priority 1996, dated 1998).

In one assay the test system is b-lactamase. The note with it: commercial b-lactamase inhibitors, for comparison; cited from earlier work.
For assay [1], the target named is porcine pancreatic elastase (PPE) (Sus scrofa, UniProt P00772). Put plainly: IC50 determination, inhibition of porcine pancreatic elastase (PPE). The conditions noted are these: 5 min incubation with the inhibitor. Format: biochemical.
Assay [2] concerns the target T1, human leukocyte elastase (HLE) (Homo sapiens, UniProt P08246).
T1 construct: purchased Elastin Products Company, Inc. (Owensville, Mo.)
T1 sequence (P08246 30-267): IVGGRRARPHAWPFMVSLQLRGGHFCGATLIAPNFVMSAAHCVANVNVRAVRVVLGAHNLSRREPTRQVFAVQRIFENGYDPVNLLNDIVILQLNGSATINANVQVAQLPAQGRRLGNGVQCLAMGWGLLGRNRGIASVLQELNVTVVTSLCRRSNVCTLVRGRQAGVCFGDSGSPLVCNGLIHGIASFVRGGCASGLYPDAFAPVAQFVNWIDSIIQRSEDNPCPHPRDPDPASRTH
Put plainly: IC50 determination, inhibition of human leukocyte elastase (HLE), hydrolysis of N-(methoxysuccinyl)-L-alanyl-L-alanyl-L-prolyl-L-valine 4-nitroanilide at 410 nm. Format: biochemical. The note with it: 5 min incubation with the inhibitor; pH 7.5 Tris buffer.

In the next assay the target is T2, HLE (Homo sapiens, UniProt P08246).
T2 construct: chromogenic substrate MeOSuc-AAPV-pNA
T2 sequence (P08246 30-267): T1 sequence (P08246 30-267)
Put plainly: inhibition of HLE followed as a function of time (FIG. 1). It is filed as biochemical. The note with it: 10-fold molar excess of inhibitor, assayed at regular intervals (2 to 5 minutes). The procedure:
To further document the rapid, irreversible inhibition of this enzyme at low, nearly stoichiometric ratios of inhibitor to enzyme, for selected compounds, this inhibition was followed as a function of time.
The data in FIG. 1 were generated by incubating the enzyme with a 10-fold molar excess of inhibitor. Assays of residual enzymatic activity of this mixture were assayed at regular intervals (2 to 5 minutes).

Sequence of porcine pancreatic elastase (PPE) (P00772 27-266): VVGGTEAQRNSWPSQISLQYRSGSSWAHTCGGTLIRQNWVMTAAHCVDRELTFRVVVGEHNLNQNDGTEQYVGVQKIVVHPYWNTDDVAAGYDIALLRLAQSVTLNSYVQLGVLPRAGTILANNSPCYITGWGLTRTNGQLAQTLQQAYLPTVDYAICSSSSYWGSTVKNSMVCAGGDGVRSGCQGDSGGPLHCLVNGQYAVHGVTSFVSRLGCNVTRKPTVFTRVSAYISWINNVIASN

On to `O=C(O)[C@H]1/C(=C/CO)O[C@@H]2CC(=O)N21` [clavulanic acid], for which the “ratio at which inhibitor must be used” value with b-lactamase is 200 to 1.

What is called IC50 is the concentration needed to halve the response being measured. As for `CC(=O)OCC1=C(C(=O)OC(c2ccccc2)c2ccccc2)N2C(=O)C(=C(Br)Br)[C@H]2SC1` [Compound 13, Benzhydryl 7-[dibromomethylene]cephalosporanate], the IC50 in assay [1] is 6.42 µM; in assay [2], 0.26 µM. The “residual HLE activity / inhibition as a function of time” value (“residual HLE activity / inhibition” below) on HLE was “extremely rapid and efficient inhibitor of HLE”.

Consider `CC(=O)OCC1=C(C(=O)OC(c2ccccc2)c2ccccc2)N2C(=O)/C(=C\Br)[C@H]2S(=O)(=O)C1` [Compound 16, Benzhydryl 7-[(E)-bromomethylene]cephalosporanate sulfone], for which the IC50 in assay [1] was 2.49 µM; in assay [2], 3.36 µM. In addition, the “residual HLE activity / inhibition” value at HLE was “leveling off and allowing the enzyme to regain its activity”.

In the case of `CC(=O)OCC1=C(C(=O)OC(c2ccccc2)c2ccccc2)N2C(=O)C(=C(Cl)Cl)[C@H]2SC1` [Compound 22, Benzhydryl 7-[dichloromethylene]cephalosporanate], the IC50 in assay [1] is > 10 µM; in assay [2], 6.41 µM. The “residual HLE activity / inhibition” value at HLE was “very potent, irreversible inhibitors of HLE”.
